Laboratory results taken from patent publication US9138659B2, “Compositions, methods, and systems relating to controlled crystallization and/or nucleation of molecular species” (Massachusetts Institute of Technology, priority 2010, dated 2015).
“And” between values parts separate entries of the source, which are not always exact repeats. Identical values can stand only once.

Legend:
[1] = Partition coefficients of CBZ and ROY in PEGMDA microgels from ethanol solutions; type: physicochemical; conditions: for Partition coefficient κ (solute mass fraction in gel solution / bulk): ethanol solution
[2] = ROY nucleation induction time with PEGMDA microgels in ethanol; type: physicochemical; conditions: for τ(O): ROY orange needle form; for τ(R): ROY red form; for τ(Y): ROY yellow form
Experimental: (§1) In each experiment, crystallization of pure forms of either Y (yellow prisms), R (red prisms) or ON (orange needles) were observed from ethanol solution stochastically (FIG. 30), and their frequencies of occurrence were calculated by conducting 50-150 experiments in each case (FIG. 31). Nucleation induction time data from bulk solution or with PEG130DA microgels were fitted with the stretched exponential model and the average induction time thus regressed represents an average of all forms (Table 10), since the frequencies of occurrence for R and ON were too low for separate statistical analysis. […] In the multi-exponential model, each exponential decay process may be better represented with a stretched exponential, however, a simple exponential suffices in this case and decent fit was obtained with R^2 very close to unity (Table 11).
Nucleation induction time statistics of ROY with or without the presence of PEGDA microgels were determined. For each type of samples, 50-100 experiments were performed to obtain the induction time statistics wherein P is the probability for observing no crystallization event within time t is estimated from the fraction of samples haven't crystallized at this time point. Either stretched exponential model or multi-exponential models were employed to fit the data (see Tables 10 and 11).
Induction time distribution data were fitted with stretched exponentials via nonlinear least square regression: P=exp[−(t/τ)^β], where P is the probability to observe no crystallization event within time t. τ is an average of induction times for all Y, R, ON forms.
Induction time distribution data were fitted with superposition of two or three exponentials via nonlinear least square regression. Two-exponential fit was employed for PEG200DA and PEG700DA samples: P=a·exp[−t/τ(Y)]+(1−a)·exp[−t/τ(R)], with τ(R) an average of forms R and O for the PEG700DA sample. Three-exponential fit was used for PEG400DA and PEG575DA samples: P=a·exp[−t/τ(Y)]+b·exp[−t/τ(R)]+(1−a−b)·exp[−t/τ(O)], where Y, R, and O represent the yellow, red and orange needle forms respectively. *τ, an average induction time of Form R and ON, given the lack of data points to distinguish the two.

[3] = ROY; at the chosen experimental condition; cited from earlier work
[4] = ROY nucleation induction time with PEGMDA microgels in ethanol; type: physicochemical; conditions: ROY Form R; without microgels
[5] = Preferred orientation of ROY crystals on PEGMDA polymer films by XRD; type: physicochemical
Text: The ROY-polymer interactions were probed via preferred crystal orientations on flat PEGMDA films. From the bulk solution, ROY crystallized in Form Y predominantly. In comparison, PEGMDA films templated nucleation of R, as well as Y, which is consistent with the observations with microgels. […] To verify this observation, the contribution from each crystal facet was quantified and listed the prominent ones in Table 12. […] Polymers with M=130, 200 g/mol favor R (111) and R (220). As M increases, percentage of R decreases and Y increases to become the dominant polymorph on M=575, 700 g/mol, which is contact with the polymer via Y (020) and/or (040) facet.
XRD patterns of ROY crystallized from bulk solution and on PEGDA films under the substantially similar conditions were obtained. Additional peaks observed from crystals templated by polymer films but not from bulk crystals were observed. Reference patterns were calculated from CSD using POWD-12++.
Analysis on the XRD data is carried out by normalizing the measured peak intensities Ip^i with the reference peak intensities Ibulk^i from the bulk sample, following the formula
[formula] where ηi is the percentage of crystals in orientation i, and p is short for polymer. Percentages are highlighted as bold for dominant orientations in each case.

[6] = ROY polymorph frequency of occurrence; type: physicochemical; conditions: vs bulk crystallization
Experimental: as §1
In FIG. 31: Polymorph frequency of occurrence in 12 mg/ml ROY-ethanol solution with or without microgels of various mesh sizes (left) and at higher solution concentrations, C0 (right). Frequency of occurrence is calculated as the percentage of samples crystallized in a particular form within 1440 min out of the total number of samples. The analysis for 12 mg/ml solution is carried out previously. In summary, addition of PEGDA microgels accelerated crystallization of all three forms, Y, R and ON.

[7] = PEGMDA polymer film M 130 g/mol
[8] = PEGMDA polymer film M 200 g/mol
[9] = PEGMDA polymer film M 400 g/mol
[10] = PEGMDA polymer film M 575 g/mol
[11] = PEGMDA polymer film M 700 g/mol

SMILES: Cc1cc(C#N)c(Nc2ccccc2[N+](=O)[O-])s1 [ROY, 5-methyl-2-[(2-nitrophenyl)amino]-3-thiophenecarbonitrile]
- ROY concentration in the gel phase relative to bulk solution ([1]; PEGMDA gels, ethanol): 6-11 times
- Partition coefficient κ (solute mass fraction in gel solution / bulk) ([1]; PEGMDA microgels M 130 g/mol): 6.3 ± 0.2
- Partition coefficient κ (solute mass fraction in gel solution / bulk) ([1]; PEGMDA microgels M 200 g/mol): 6.1 ± 0.9
- Partition coefficient κ (solute mass fraction in gel solution / bulk) ([1]; PEGMDA microgels M 400 g/mol): 11.0 ± 0.4
- Partition coefficient κ (solute mass fraction in gel solution / bulk) ([1]; PEGMDA microgels M 575 g/mol): 11.3 ± 1.6
- Partition coefficient κ (solute mass fraction in gel solution / bulk) ([1]; PEGMDA microgels M 700 g/mol): 11.8 ± 1.1
- time within which all nucleation of Y occurred ([2]; ROY Form Y, PEG200DA microgels): ≤ 100 min
- τ(O) ([2]; PEG400DA microgels): 3300 min
- τ(O) ([2]; PEG575DA microgels): 2900 min
- τ(R) ([2]; PEG200DA microgels): 9000 ± 6000 min
- τ(R) ([2]; PEG400DA microgels): 1600 ± 400 min
- τ(R) ([2]; PEG575DA microgels): 200 min and 200 ± 20 min
- τ(Y) ([2]; PEG200DA microgels): 26.0 ± 1.5 min
- τ(Y) ([2]; PEG400DA microgels): 22.0 ± 0.6 min
- τ(Y) ([2]; PEG575DA microgels): 10.0 ± 0.8 min
- τ(Y) ([2]; PEG700DA microgels): 12.0 ± 1.2 min
- average nucleation induction time τ (average of Y, R, ON forms) ([2]; ROY, Bulk ethanol solution): 10000 ± 2000 min
- average nucleation induction time τ (average of Y, R, ON forms) ([2]; ROY, PEG130DA microgels): 4000 ± 750 min
- τ(R), an average induction time of Form R and ON ([2]; ROY, PEG700DA microgels): 2600 ± 400 min
- relative stability of the three observed polymorphs [3]: Y>ON>R
- average induction time of R [4]: over 10000 min
- Percentage of ROY crystals in orientation R (111) [5, 7]: 38.0%
- Percentage of ROY crystals in orientation R (220) [5, 7]: 46.8%
- Percentage of ROY crystals in orientation Y (020) [5, 7]: 7.5%
- Percentage of ROY crystals in orientation Y (040) [5, 7]: 3.4%
- Percentage of ROY crystals in orientation R (111) [5, 8]: 36.2%
- Percentage of ROY crystals in orientation R (220) [5, 8]: 53.6%
- Percentage of ROY crystals in orientation Y (020) [5, 8]: 3.5%
- Percentage of ROY crystals in orientation Y (040) [5, 8]: 1.6%
- Percentage of ROY crystals in orientation R (111) [5, 9]: 28.8%
- Percentage of ROY crystals in orientation R (220) [5, 9]: 24.9%
- Percentage of ROY crystals in orientation Y (020) [5, 9]: 23.6%
- Percentage of ROY crystals in orientation Y (040) [5, 9]: 9.9%
- Percentage of ROY crystals in orientation R (111) [5, 10]: 12.9%
- Percentage of ROY crystals in orientation R (220) [5, 10]: 20.0%
- Percentage of ROY crystals in orientation Y (020) [5, 10]: 26.9%
- Percentage of ROY crystals in orientation Y (040) [5, 10]: 13.1%
- Percentage of ROY crystals in orientation R (111) [5, 11]: 9.8%
- Percentage of ROY crystals in orientation R (220) [5, 11]: 14.4%
- Percentage of ROY crystals in orientation Y (020) [5, 11]: 50.9%
- Percentage of ROY crystals in orientation Y (040) [5, 11]: 16.9%
- improvement of Form R frequency of occurrence by polymer microgels [6]: up to 20 times
